In ChEMBL document CHEMBL5120861, “Short peptide pharmacophores developed from protein phosphatase-1 disrupting peptides (PDPs)” (Bioorg Med Chem, 2022) one finds EC50 data, which are given here for 21 compounds.

This assay can be described thus: Disruption of PP1 holoenzyme (unknown origin) interaction with protein inhibitor 2 assessed as increase in PP1 phosphatase activity by measuring increase in fluorescence using DiFMUP as substrate enzyme preincubated with I2 for ten mins followed by compound treatment for 20 mins followed by substrate addition by fluorescence based analysis. Also on record: species or system Homo sapiens.

Where a SMILES comes first, the peptide text is derived from it. [ ]: non-standard residue; d: D form. 1Nal = N[C@@H](Cc1cccc2ccccc12)C(=O)O; NMeF = CN[C@@H](Cc1ccccc1)C(=O)O; hArg = N=C(N)NCCCC[C@H](N)C(=O)O; β3hR = N=C(N)NCCC[C@H](N)CC(=O)O

Usually EC50 stands for the concentration that produces a half-maximal response. Take `CC(C)[C@H](NC(=O)[C@@H](N)CCCNC(=N)N)C(=O)N[C@H](C(=O)N[C@@H](Cc1ccc(O)cc1)C(=O)O)[C@@H](C)O` (H-RVTY-OH): the concentration for a half-maximal effect (EC50) is over 500 µM.

Consider `CC(C)[C@H](NC(=O)[C@@H](N)CCCNC(=N)N)C(=O)N[C@@H](CCCCN)C(=O)N[C@@H](Cc1ccccc1)C(=O)O` (H-RVKF-OH), for which the EC50 is 249 µM.

Turning to `CC(C)[C@H](NC(=O)[C@@H](N)CCCNC(=N)N)C(=O)N[C@@H](Cc1ccccc1)C(=O)N[C@@H](Cc1ccccc1)C(=O)O` (H-RVFF-OH), the concentration for a half-maximal effect (EC50) was over 500 µM.

As for `CC(C)[C@H](NC(=O)[C@@H](N)CCCNC(=N)N)C(=O)N[C@H](C(=O)N[C@@H](Cc1c[nH]c2ccccc12)C(=O)O)[C@@H](C)O` (H-RVTW-OH), the EC50 amounted to 256 µM.

On to `CC(C)[C@H](NC(=O)C[C@H](CCCNC(=N)N)NC(=O)[C@@H](N)CCCCN)C(=O)N[C@@H](Cc1c[nH]cn1)C(=O)N[C@@H](Cc1ccccc1)C(N)=O` (H-K[β3hR]VHF-NH2), for which the half-maximal effective concentration (EC50) came out at 204 µM.

Regarding `CC(C)[C@H](NC(=O)[C@@H](N)CCCCN)C(=O)N[C@H](C(=O)N[C@@H](Cc1ccccc1)C(=O)O)[C@@H](C)O` (H-KVTF-OH), the 50% effective concentration (EC50) was over 500 µM.

Consider `CC(C)[C@H](NC(=O)[C@@H](N)CCCNC(=N)N)C(=O)N[C@H](C(=O)N[C@H](Cc1ccccc1)C(=O)O)[C@@H](C)O` (H-RVT[dF]-OH), for which the 50% effective concentration (EC50) is over 500 µM.

For the compound `CC(C)[C@H](NC(=O)[C@@H](N)CCCNC(=N)N)C(=O)N[C@H](C(=O)N[C@@H](Cc1ccccc1)C(=O)O)[C@@H](C)O` (H-RVTF-OH), the EC50 is 234 µM.

`CC(=O)N[C@@H](CCCNC(=N)N)C(=O)N[C@H](C(=O)N[C@H](C(=O)N[C@@H](Cc1ccccc1)C(N)=O)[C@@H](C)O)C(C)C` (Ac-RVTF-NH2): the EC50 worked out at 85.7 µM.

As to `CC(C)[C@H](NC(=O)[C@@H](N)CCCNC(=N)N)C(=O)N[C@@H](CC(=O)O)C(=O)N[C@@H](Cc1ccccc1)C(=O)O` (H-RVDF-OH), the EC50 is over 500 µM.

As for H-KRVHF-OH, the EC50 came to 1.5 µM.

As to `CC(C)[C@H](NC(=O)[C@H](N)CCCNC(=N)N)C(=O)N[C@H](C(=O)N[C@@H](Cc1ccccc1)C(=O)O)[C@@H](C)O` (H-[dR]VTF-OH), the EC50 is over 500 µM.

Turning to `CC(C)[C@H](NC(=O)[C@@H](N)CCCNC(=N)N)C(=O)N[C@@H](Cc1cnc[nH]1)C(=O)N[C@@H](Cc1ccccc1)C(=O)O` (H-RVHF-OH), the EC50 was 69.7 µM.

For `CC(C)[C@@H](NC(=O)[C@H](NC(=O)[C@H](N)Cc1ccccc1)[C@H](C)O)C(=O)N[C@H](CCCNC(=N)N)C(=O)O` (H-[dF][dT][dV][dR]-OH), the EC50 was over 500 µM.

With `CC(C)[C@H](NC(=O)[C@@H](NC(=O)[C@@H](N)Cc1ccccc1)[C@@H](C)O)C(=O)N[C@@H](CCCNC(=N)N)C(=O)O` (H-FTVR-OH), the EC50 is over 500 µM.

Regarding `CC(C)[C@H](NC(=O)[C@H](CCCNC(=N)N)NC(=O)[C@@H](N)CCCCNC(=N)N)C(=O)N[C@@H](Cc1cnc[nH]1)C(=O)N[C@@H](Cc1ccccc1)C(N)=O` (H-[hArg]RVHF-NH2), the EC50 amounted to 6.6 µM.

`CC(C)[C@H](NC(=O)[C@H](CCCNC(=N)N)NC(=O)[C@@H](N)CCCCN)C(=O)N[C@@H](Cc1c[nH]cn1)C(=O)N(C)[C@@H](Cc1ccccc1)C(N)=O` (H-KRVH[NMeF]-NH2): the concentration for a half-maximal effect (EC50) stood at 23.5 µM.

On to `CC(C)[C@H](NC(=O)[C@H](CCCNC(=N)N)NC(=O)[C@@H](N)CCCCN)C(=O)N[C@@H](Cc1cnc[nH]1)C(=O)N[C@@H](Cc1cccc2ccccc12)C(N)=O` (H-KRVH[1Nal]-NH2), for which the concentration giving a half-maximal response (EC50) stood at 2.5 µM.

Consider `CC(C)[C@H](NC(=O)[C@@H](N)CCCNC(=N)N)C(=O)N[C@@H](Cc1c[nH]c2ccccc12)C(=O)N[C@@H](Cc1ccccc1)C(=O)O` (H-RVWF-OH), for which the EC50 amounted to 104 µM.

Take `CC(C)[C@@H](NC(=O)[C@@H](N)CCCNC(=N)N)C(=O)N[C@H](C(=O)N[C@@H](Cc1ccccc1)C(=O)O)[C@@H](C)O` (H-R[dV]TF-OH): the half-maximal effective concentration (EC50) is over 500 µM.

In the case of `CC(C)[C@@H](NC(=O)[C@H](N)CCCNC(=N)N)C(=O)N[C@@H](C(=O)N[C@@H](Cc1ccccc1)C(=O)O)[C@H](C)O` (H-[dR][dV][dT]F-OH), the concentration giving a half-maximal response (EC50) was over 500 µM.
